In article PMC7318222, “A Family of Water‐Immiscible, Dipolar Aprotic, Diamide Solvents from Succinic Acid” (Chemsuschem, 2020):

What follows are compounds tested against T1, AR (Homo sapiens, UniProt P10275) (assay: AR-anti CALUX reporter gene assay (antagonistic mode)). Settings: PC20, 24 h exposure.
T1 construct: expression construct for the full-length human receptor under investigation; expressed in transfected cells; host or cells: human U2-OS cells (ATCC HTB-96), stably transfected
T1 sequence (P10275 1-920): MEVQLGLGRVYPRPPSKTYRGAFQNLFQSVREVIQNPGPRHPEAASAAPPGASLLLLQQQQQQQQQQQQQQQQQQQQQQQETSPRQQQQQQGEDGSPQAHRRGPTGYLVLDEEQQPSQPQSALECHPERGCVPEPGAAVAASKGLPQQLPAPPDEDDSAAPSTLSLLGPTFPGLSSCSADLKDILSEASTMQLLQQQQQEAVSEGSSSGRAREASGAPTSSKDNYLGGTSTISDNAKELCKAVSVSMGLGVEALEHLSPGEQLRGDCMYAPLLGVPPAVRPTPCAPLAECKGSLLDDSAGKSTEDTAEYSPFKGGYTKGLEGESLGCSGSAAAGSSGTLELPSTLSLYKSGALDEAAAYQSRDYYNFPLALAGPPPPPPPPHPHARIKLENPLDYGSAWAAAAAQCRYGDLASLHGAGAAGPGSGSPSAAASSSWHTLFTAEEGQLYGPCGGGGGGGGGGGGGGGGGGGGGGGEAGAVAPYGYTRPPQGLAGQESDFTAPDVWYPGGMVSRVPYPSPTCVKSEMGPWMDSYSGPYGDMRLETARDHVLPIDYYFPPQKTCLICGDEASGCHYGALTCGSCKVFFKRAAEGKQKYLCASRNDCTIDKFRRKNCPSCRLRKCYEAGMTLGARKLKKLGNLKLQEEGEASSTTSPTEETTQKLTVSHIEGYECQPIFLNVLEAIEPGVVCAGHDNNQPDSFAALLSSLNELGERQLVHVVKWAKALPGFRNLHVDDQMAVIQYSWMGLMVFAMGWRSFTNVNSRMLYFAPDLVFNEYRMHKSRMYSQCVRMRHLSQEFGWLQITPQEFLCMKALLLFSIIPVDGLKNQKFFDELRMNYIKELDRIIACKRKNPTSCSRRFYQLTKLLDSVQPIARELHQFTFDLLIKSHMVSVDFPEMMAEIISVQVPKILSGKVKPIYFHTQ
Type: cell-based
Set-up: key: –: no effect observed up to the highest test concentration
Source text: Polyarylethersulfone of 55,000 Da were obtained from INGE.BASF, Germany. The CALUX cell lines have been described previously.[1] They are based on human U2-OS cells (ATCC, HTB-96) stably transfected with an expression construct for the full-length human receptor under investigation, and a reporter construct consisting of multimerized responsive elements for the cognate receptor coupled to a minimal promoter element (TATA) and a luciferase gene. Cells were maintained as described previously,[2] using cell culture media and supplements from Fisher Scientific as described in the experimental procedures section. […]
In vitro reporter gene assays
The automated CALUX assays were carried out similarly as described earlier,[12] with some adaptations. In brief, the assay was performed in CO2 independent medium (Fisher Scientific, […]
with 30 µl cell suspension/well. After 24 h, exposure medium was prepared. A dilution series in 0.5log unit increments of each test compound (in DMSO) was added to a 96-wells plate containing assay medium (2% v/v). Of this exposure mixture, 30 µl was added to the assay plates containing the CALUX cells, resulting in a final DMSO concentration of 1%. Additionally, DMSO blanks and a full dose response curve of the relevant reference compound were included on each plate. All samples were tested in triplicate. The preparation of the compound dilution series as well as the exposure of the cells were performed on a Hamilton StarLET liquid handling robot coupled to a Cytomat incubator.
Directly after exposure, plates were sealed with non-breathing plate seals (Plate sealer, easy seal […]
After 24 h the exposure medium was removed using an EL406 washer-dispenser (BioTek) and 10 µl/well triton lysisbuffer was added by the EL406.
Subsequently, the luciferase signal was measured in a luminometer (InfinitePro coupled to a Connect Stacker, both TECAN). In order to be able to detect receptor antagonism, several assays were also performed in antagonistic mode. The assay procedure was as described above, with the only exception that the EC50 concentration of the reference agonist was present during the exposure.
The luminometer data was analysed as follows; the average of the triplicate wells was determined, […]

LEC AR‐anti | SMILES
– | CCCCN(CC)C(=O)CCC(=O)N(CC)CCCC [EBSA, N,N′‐diethyl‐N,N′‐dibutylsuccindiamide]
– | CCCCN(C)C(=O)CCC(=O)N(C)CCCC [MBSA, N,N′‐dimethyl‐N,N′‐dibutylsuccindiamide]
– | CCCCN(CCCC)C(=O)CCC(=O)N(CCCC)CCCC [TBSA, N,N,N′,N′‐tetrabutylsuccindiamide]
– | CCCCN1CCCC1=O [NBP, N‐Butylpyrrolidinone, reference compound]
